According to patent US20190343801A1, “COMPOSITIONS AND METHODS FOR CONTROLLING NATURAL KILLER CELL ACTIVATION AND FUNCTION” (BAR ILAN UNIVERSITY, priority 2017, published 2019):
Where a name gives a salt, the structure may show the parent alone.

Tested on: SHP-1 conformation
Experiment: YFP-SHP1-CFP FRET sensor analysis of SHP-1 conformation in YTS cells
Type: cell-based
Details: inhibitory NKIS (221-Cw4), untreated 11.5±2.5%; 1 μM JAS, 25 μM Y-27
Protocol: Active “open” conformation of SHP-1 results in a large distance between the two fluorescent proteins with no FRET signal. The inactivated, “closed”, conformation of SHP-1 brings the N′- and C′-termini into proximity resulting in high FRET efficiency.
YTS-2DL1 cells transiently expressing YFP-SHP1-CFP were treated with 25 μM Y-27 or left untreated. Cells were incubated on slides with 221-Cw4 or Cw7 target cells expressing mCherry, following 5 min of conjugation at 37° C., cells were treated with 1 μM JAS, and incubated for 5 min before fixation. FRET analysis was performed (see Experimental procedures). […]
FRET was measured by the donor-sensitized acceptor fluorescence technique. Briefly, three sets of filters were used: one optimized for donor fluorescence (excitation, 458 nm, and emission, 465 to 510 nm), a second for acceptor fluorescence (excitation, 514 nm, and emission, 530 to 600 nm), and a third for FRET (excitation, 458 nm; emission, 530 to 600 nm).
FRET correction was performed as previously described. In brief, the non-FRET components were calculated and removed using calibration curves derived from images of single-labeled CFP- or YFP-expressing cells. […] A calibration curve was derived that defined the amount of CFP fluorescence seen in the FRET image as a function of the fluorescence in the CFP image. […]

`C[C@@H](N)C1CCC(C(=O)Nc2ccncc2)CC1` (stereo partly drawn) [Formula Y-27, 4-[(1R)-1-aminoethyl]-N N-4-pyridinyl-trans-cyclohexanecarboxamide, dihydrochloride] gave an FRET efficiency of 23.2±1.3%.
